Experimental data from ChEMBL document CHEMBL4602738, “Looking toward the Rim of the Active Site Cavity of Druggable Human Carbonic Anhydrase Isoforms” (ACS Med Chem Lett, 2020).

Experiments:
[1] = molecular target: Carbonic anhydrase 9 (Homo sapiens, UniProt Q16790)
Description: Inhibition of human CA9 preincubated for 15 mins by stopped-flow carbon dioxide hydration assay

[2] = molecular target: Carbonic anhydrase 2 (Homo sapiens, UniProt P00918); experiment: Inhibition of human CA2 preincubated for 15 mins by stopped-flow carbon dioxide hydration assay

NS(=O)(=O)c1ccc(C(=O)N2CCN(C(=O)c3ccccc3Cl)CC2)cc1
Ki [1]: 62.2 nM

NS(=O)(=O)c1ccc(C(=O)N2CCN(C(=O)c3ccccc3F)CC2)cc1
Ki [2]: 28.4 nM | Ki [1]: 68.7 nM

NS(=O)(=O)c1ccc(C(=O)N2CCN(C(=O)c3cccc(Br)c3)CC2)cc1
Ki [2]: 0.6 nM | Ki [1]: 16.2 nM

Nc1ccccc1C(=O)N1CCN(C(=O)c2ccc(S(N)(=O)=O)cc2)CC1
Ki [2]: 4.1 nM | Ki [1]: 19.1 nM

NS(=O)(=O)c1ccc(C(=O)N2CCN(C(=O)c3ccccc3)CC2)cc1
Ki [1]: 37.1 nM

NS(=O)(=O)c1ccc(C(=O)N2CCN(C(=O)c3ccccc3Br)CC2)cc1
Ki [2]: 3 nM | Ki [1]: 60.4 nM

NS(=O)(=O)c1ccc(C(=O)N2CCN(C(=O)c3cccc([N+](=O)[O-])c3)CC2)cc1
Ki [2]: 28.6 nM | Ki [1]: 2.2 nM

NS(=O)(=O)c1ccc(C(=O)N2CCN(C(=O)c3cccc(Cl)c3)CC2)cc1
Ki [2]: 22.5 nM | Ki [1]: 54.4 nM

NS(=O)(=O)c1ccc(C(=O)N2CCN(C(=O)c3cccc(F)c3)CC2)cc1
Ki [2]: 0.41 nM | Ki [1]: 3.8 nM

NS(=O)(=O)c1ccc(C(=O)N2CCN(C(=O)c3ccc(Br)cc3)CC2)cc1
Ki [2]: 4.4 nM | Ki [1]: 8 nM

COc1cccc(C(=O)N2CCN(C(=O)c3ccc(S(N)(=O)=O)cc3)CC2)c1
Ki [2]: 36.3 nM | Ki [1]: 360 nM

NS(=O)(=O)c1ccc(C(=O)N2CCN(C(=O)c3ccc(Cl)cc3)CC2)cc1
Ki [2]: 7.2 nM | Ki [1]: 29.2 nM

Nc1cccc(C(=O)N2CCN(C(=O)c3ccc(S(N)(=O)=O)cc3)CC2)c1
Ki [2]: 51.1 nM | Ki [1]: 15.2 nM

NS(=O)(=O)c1ccc(C(=O)N2CCN(C(=O)c3ccc(F)cc3)CC2)cc1
Ki [2]: 32.4 nM | Ki [1]: 332 nM

NS(=O)(=O)c1ccc(C(=O)N2CCN(C(=O)c3ccc([N+](=O)[O-])cc3)CC2)cc1
Ki [2]: 23.9 nM | Ki [1]: 11.2 nM

COc1ccccc1C(=O)N1CCN(C(=O)c2ccc(S(N)(=O)=O)cc2)CC1
Ki [2]: 19.8 nM | Ki [1]: 250 nM

NS(=O)(=O)c1ccc(C(=O)N2CCN(C(=O)c3ccccc3[N+](=O)[O-])CC2)cc1
Ki [2]: 42.4 nM | Ki [1]: 9.8 nM

Nc1ccc(C(=O)N2CCN(C(=O)c3ccc(S(N)(=O)=O)cc3)CC2)cc1
Ki [2]: 78.8 nM | Ki [1]: 14.3 nM
